Tests used:
Type in all cases: binding
Conditions in all cases: Compound Concentration 10 µM
panel of 442 kinases [1] = target: T1, panel of 442 kinases (Homo sapiens, UniProt P22455)
T1 construct: purchased KINOMEscan
From the text: (§1) We assessed the selectivity of members of this scaffold using the KINOMEscan methodology across a near comprehensive panel of 442 kinases [[18,27]].

panel of 442 kinases [2] = target: T2, panel of 442 kinases (Homo sapiens, UniProt Q16832)
T2 construct: purchased KINOMEscan
T2 sequence (Q16832 22-855): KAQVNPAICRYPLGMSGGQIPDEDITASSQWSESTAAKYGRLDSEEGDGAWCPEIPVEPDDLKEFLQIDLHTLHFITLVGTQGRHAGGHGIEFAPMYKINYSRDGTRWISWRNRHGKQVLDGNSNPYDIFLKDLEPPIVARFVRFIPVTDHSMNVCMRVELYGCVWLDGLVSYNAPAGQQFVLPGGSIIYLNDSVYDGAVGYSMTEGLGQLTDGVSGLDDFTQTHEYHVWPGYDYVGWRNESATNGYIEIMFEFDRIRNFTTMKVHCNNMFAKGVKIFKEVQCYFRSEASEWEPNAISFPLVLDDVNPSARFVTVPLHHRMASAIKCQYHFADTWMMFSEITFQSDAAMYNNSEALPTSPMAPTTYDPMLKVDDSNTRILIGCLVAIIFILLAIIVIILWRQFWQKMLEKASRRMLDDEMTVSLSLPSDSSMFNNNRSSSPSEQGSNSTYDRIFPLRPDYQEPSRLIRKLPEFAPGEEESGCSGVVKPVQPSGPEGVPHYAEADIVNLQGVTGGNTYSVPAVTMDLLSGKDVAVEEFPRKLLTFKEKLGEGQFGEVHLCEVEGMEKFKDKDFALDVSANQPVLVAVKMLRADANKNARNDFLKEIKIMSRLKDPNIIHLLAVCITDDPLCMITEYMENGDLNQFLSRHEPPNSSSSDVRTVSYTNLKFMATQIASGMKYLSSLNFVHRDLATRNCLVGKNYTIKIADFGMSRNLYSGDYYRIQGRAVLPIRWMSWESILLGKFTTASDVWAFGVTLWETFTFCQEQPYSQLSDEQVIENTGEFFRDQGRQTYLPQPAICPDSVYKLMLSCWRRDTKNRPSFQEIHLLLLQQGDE
From the text: as §1

panel of 442 kinases [3] = target: T3, panel of 442 kinases (Homo sapiens, UniProt Q02750)
T3 construct: purchased KINOMEscan
T3 sequence (Q02750 whole entry): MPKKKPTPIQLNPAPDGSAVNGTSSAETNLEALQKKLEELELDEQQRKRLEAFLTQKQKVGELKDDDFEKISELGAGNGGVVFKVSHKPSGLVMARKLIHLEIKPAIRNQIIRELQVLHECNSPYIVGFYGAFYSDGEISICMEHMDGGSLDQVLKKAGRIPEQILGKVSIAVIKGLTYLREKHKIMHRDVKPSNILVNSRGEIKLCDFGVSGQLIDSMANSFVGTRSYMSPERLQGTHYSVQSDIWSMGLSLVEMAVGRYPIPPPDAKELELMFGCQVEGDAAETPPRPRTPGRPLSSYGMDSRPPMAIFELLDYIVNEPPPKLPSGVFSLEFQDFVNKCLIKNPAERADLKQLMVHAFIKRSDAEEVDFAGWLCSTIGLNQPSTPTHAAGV
From the text: as §1

T1 sequence (P22455 22-802): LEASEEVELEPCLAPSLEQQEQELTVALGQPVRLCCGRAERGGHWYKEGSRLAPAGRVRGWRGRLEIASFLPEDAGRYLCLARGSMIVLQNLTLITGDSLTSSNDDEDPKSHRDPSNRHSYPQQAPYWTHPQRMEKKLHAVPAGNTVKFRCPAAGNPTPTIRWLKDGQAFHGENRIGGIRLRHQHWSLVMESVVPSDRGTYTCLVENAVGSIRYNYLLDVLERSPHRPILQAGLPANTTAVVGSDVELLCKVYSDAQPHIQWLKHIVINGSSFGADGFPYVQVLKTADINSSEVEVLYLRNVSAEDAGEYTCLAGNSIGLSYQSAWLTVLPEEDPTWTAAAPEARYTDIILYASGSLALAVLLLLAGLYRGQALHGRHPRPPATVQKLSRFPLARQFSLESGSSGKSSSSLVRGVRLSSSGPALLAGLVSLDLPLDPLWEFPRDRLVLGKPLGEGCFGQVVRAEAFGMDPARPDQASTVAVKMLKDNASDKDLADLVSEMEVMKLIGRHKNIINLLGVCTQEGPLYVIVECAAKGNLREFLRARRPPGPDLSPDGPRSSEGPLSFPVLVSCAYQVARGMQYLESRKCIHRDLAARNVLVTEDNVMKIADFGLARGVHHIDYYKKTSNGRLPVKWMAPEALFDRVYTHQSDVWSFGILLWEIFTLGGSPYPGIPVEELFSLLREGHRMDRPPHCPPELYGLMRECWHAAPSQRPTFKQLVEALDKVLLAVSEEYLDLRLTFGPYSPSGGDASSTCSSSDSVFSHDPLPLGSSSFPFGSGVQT

Compound | KINOMEscan: FGFR4 (panel of 442 kinases [1]) | KINOMEscan: DDR2 (panel of 442 kinases [2]) | KINOMEscan: MEK1 (panel of 442 kinases [3])
COc1cc(C(=O)N2CCC(N3CCN(C)CC3)CC2)ccc1Nc1ncc2c(n1)N(C)c1ccccc1C(=O)N2C [15 (LRRK2-IN-1)] | 28 | 100 | 100
COc1cc(C(=O)N2CCC(N3CCN(C)CC3)CC2)ccc1Nc1ncc2c(n1)N1CCc3cccc(c31)C(=O)N2C [Compound 24] | 23 |  | 75
COc1cc(C(=O)N2CCC(N3CCN(C)CC3)CC2)ccc1Nc1ncc2c(n1)N(C1CCCC1)c1ccccc1C(=O)N2C [Compound 25, 11-cyclopentyl-2-((2-methoxy-4-(4-(4-methylpiperazin-1-yl)piperidine-1-carbonyl)phenyl)amino)-5-methyl-5H-benzo[e]pyrimido[5,4-b][1,4]diazepin-6(11H)-one] | 75 | 96 | 68
CCOc1cc(C(=O)N2CCC(N3CCN(C)CC3)CC2)ccc1Nc1ncc2c(n1)N(C1CCCC1)c1ccccc1C(=O)N2C [Compound 26] | 100 | 81 | 100

Source: paper PMC3914206
